Assays:
[1] = Preparation of liposome from mixed lipid (dispersion in water, high-pressure extrusion); assay type: physicochemical; settings: mixed lipid compound/cholesterol/PEG-Glu2C18 dispersed in water, high-pressure extrusion 0.22 μm
Experimental: Compound 7, 8 or 9 (0.177 mmol), cholesterol (0.179 mmol) and PEG-Glu2C18 (1.0 μmol) were dissolved in benzene, and the mixture was freeze-dried to prepare a mixed lipid. 20 mg of this mixed lipid was dispersed in 1 mL of water for injection, and the resultant mixture was stirred for 6 hours. After that, liposome having a particle size of about 240 nm was prepared by means of the high-pressure extrusion method (final pore diameter: 0.22 μm).
Compound 3, 12 or 13 (0.177 mmol), cholesterol (0.179 mmol) and PEG-Glu2C18 (1.0 mmol) were dissolved in benzene, and the mixture was freeze-dried to prepare a mixed lipid. 20 mg of this mixed lipid was dispersed in 1 mL of water for injection, and the resultant mixture was stirred for 6 hours. After that, liposome having a particle size of about 240 nm was prepared by means of the high-pressure extrusion method (final pore diameter: 0.22 μm).

[2] = Measurement of zeta potential of liposomes; assay type: physicochemical; settings: liposome compound/cholesterol/PEG-Glu2C18 (5/5/0.03 molar ratio); acetate buffers 20 mM; 37°C
Experimental: Portions of the prepared liposome ([lipid]=10 mg/ml) were respectively added to acetate buffers with different pHs (7.4, 7, 6, 5, 4) (30 mM) to the final concentration of [lipid]=1 mg/mL, and then the zeta potential at 37° C. was measured. Zetasizer 4 manufactured by Malvern was used. A capillary cell was filled with a liposome-dispersed liquid obtained by dilution to the measurement concentration, and the measurement was performed at 37° C. 3 times.
Portions of the prepared liposome ([lipid]=10 mg/ml) were respectively added to acetate buffers with different pHs (7.4, 7, 6, 5, 4) (20 mM) to the final concentration of [lipid]=1 mg/mL, and then the zeta potential at 37° C. was measured.
Portions of each of the prepared liposomes ([lipid]=10 mg/ml) were respectively added to acetate buffers with different pHs (7.4, 7, 6, 5, 4) (20 mM) to the final concentration of [lipid]=1 mg/mL, and then the zeta potential at 37° C. was measured.

[3] = Degree of fusion with anionic liposome (Example 9); settings: liposome compound/cholesterol/PEG-Glu2C18, 37°C, 30 minutes
Experimental: In a manner similar to that in Example 2, the degree of fusion of the pH-responsive liposome with respect to the anionic liposome (DOPC/DPPG, 5/1 (molar ratio)) was calculated. The measurement method was as follows. 50 μL of 1 mM anionic liposome and 50 μL of 9 mM (converted to the mixed lipid basis) pH-responsive liposome were added to 1.9 mL of each of acetate buffers with different pHs and allowed to stand at 37° C. 30 minutes later, […] of the mixture was dividedly poured and added to 1.9 mL of HEPES buffer (pH 7.4). The resultant mixture was transferred to a quartz cell and subjected to fluorescence measurement (λex: 460 nm, 530 nm). The measurement was carried out using RF-5300PC manufactured by Shimadzu.

Row | Structure (SMILES) | liposome formation with the compound as main component [1] | pH at which the zeta potential changed from negative to positive [2] | degree of fusion ([3]; pH 6.5 (maximum)) | degree of fusion ([3]; pH 7.4)
1 | CCCCCCCCCCCCCCOC(=O)CCC(NC(=O)C(CCCCNC(=O)C(N)CCC(=O)O)NC(=O)C(N)CCC(=O)O)C(=O)OCCCCCCCCCCCCCC (stereo not shown) [Compound 12] | liposome was formed | about 7.0 | over 65% | about 45%
2 | CCCCCCCCCCCCCCCCCCOC(=O)CCC(NC(=O)C(CCCCNC(=O)C(N)CCC(=O)O)NC(=O)C(N)CCC(=O)O)C(=O)OCCCCCCCCCCCCCCCCCC (stereo not shown) [Compound 13] | poor dispersibility | – | – | –

More lines, main results first:

Row | liposome formation with the compound as main component [1] | pH at which the zeta potential changed from negative to positive [2] | Structure (SMILES) | degree of fusion ([3]; pH 6.5 (maximum)) | degree of fusion ([3]; pH 7.4)
3 | liposome was formed | about 5.5 | CCCCCCCCCCCCCCCCOC(=O)CCC(NC(=O)C(CCCCNC(=O)C(N)CC(=O)O)NC(=O)C(N)CCC(=O)O)C(=O)OCCCCCCCCCCCCCCCC (stereo not shown) [Compound 7] | – | –
4 | liposome was formed | about 4.8 | CCCCCCCCCCCCCCCCOC(=O)CCC(NC(=O)C(CCCCNC(=O)C(N)CCC(=O)O)NC(=O)C(N)CC(=O)O)C(=O)OCCCCCCCCCCCCCCCC (stereo not shown) [Compound 8] | – | –
5 | aggregated | – | CCCCCCCCCCCCCCCCOC(=O)CCC(NC(=O)C(CCCCNC(=O)C(N)CC(=O)O)NC(=O)C(N)CC(=O)O)C(=O)OCCCCCCCCCCCCCCCC (stereo not shown) [Compound 9] | – | –

Reference: US8241647B2, “Amphiphilic molecule, molecular assembly comprising the amphiphilic molecule, and use of the molecular assembly” (Waseda University, priority 2007, dated 2012)
